Data from ChEMBL document CHEMBL4507301 (2021).

Assays:
[1] = target: T1, Alpha-2A adrenergic receptor (Homo sapiens) (UniProt P08913); assay: alpha2A Eurofins-Panlabs ligand profiling; details: Compound concentration 10.0 uM
T1 sequence (whole entry): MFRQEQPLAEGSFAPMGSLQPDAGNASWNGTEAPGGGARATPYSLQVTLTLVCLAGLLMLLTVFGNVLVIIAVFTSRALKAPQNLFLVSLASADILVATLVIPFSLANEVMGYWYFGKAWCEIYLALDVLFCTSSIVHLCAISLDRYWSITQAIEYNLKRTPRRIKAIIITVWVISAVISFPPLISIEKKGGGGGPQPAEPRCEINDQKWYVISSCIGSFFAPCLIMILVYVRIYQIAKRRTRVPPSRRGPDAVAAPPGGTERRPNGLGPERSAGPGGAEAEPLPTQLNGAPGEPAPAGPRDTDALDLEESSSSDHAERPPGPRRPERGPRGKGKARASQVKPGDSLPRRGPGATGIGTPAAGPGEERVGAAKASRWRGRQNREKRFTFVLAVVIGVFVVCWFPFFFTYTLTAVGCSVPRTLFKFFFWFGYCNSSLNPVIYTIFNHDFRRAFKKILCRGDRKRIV

[2] = target: T2, Alpha-2C adrenergic receptor (Homo sapiens) (UniProt P18825); assay: alpha2C Eurofins-Panlabs ligand profiling; details: Compound concentration 10.0 uM
T2 sequence (whole entry): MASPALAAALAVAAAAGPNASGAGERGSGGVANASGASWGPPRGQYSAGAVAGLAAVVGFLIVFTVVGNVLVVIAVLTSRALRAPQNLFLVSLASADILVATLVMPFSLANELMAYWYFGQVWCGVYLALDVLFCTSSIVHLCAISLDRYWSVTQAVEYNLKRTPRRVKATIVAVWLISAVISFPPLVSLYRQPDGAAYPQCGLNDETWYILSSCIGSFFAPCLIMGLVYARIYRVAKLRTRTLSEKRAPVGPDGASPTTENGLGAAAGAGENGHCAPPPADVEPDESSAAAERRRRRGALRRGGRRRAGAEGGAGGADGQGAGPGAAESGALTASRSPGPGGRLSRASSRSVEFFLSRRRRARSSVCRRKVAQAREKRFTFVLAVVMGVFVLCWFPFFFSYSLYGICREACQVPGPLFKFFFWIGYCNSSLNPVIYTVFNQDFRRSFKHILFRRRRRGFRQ

[3] = target: Beta-3 adrenergic receptor (Homo sapiens) (UniProt P13945); assay: beta3 Eurofins-Panlabs ligand profiling; details: Compound concentration 10.0 uM
[4] = target: Atypical kinase COQ8A, mitochondrial (Homo sapiens) (UniProt Q8NI60); details: Compound concentration 1000.0 nM
Atypical kinase COQ8A, mitochondrial (Homo sapiens), sequence (Q8NI60 163-647 limits assumed): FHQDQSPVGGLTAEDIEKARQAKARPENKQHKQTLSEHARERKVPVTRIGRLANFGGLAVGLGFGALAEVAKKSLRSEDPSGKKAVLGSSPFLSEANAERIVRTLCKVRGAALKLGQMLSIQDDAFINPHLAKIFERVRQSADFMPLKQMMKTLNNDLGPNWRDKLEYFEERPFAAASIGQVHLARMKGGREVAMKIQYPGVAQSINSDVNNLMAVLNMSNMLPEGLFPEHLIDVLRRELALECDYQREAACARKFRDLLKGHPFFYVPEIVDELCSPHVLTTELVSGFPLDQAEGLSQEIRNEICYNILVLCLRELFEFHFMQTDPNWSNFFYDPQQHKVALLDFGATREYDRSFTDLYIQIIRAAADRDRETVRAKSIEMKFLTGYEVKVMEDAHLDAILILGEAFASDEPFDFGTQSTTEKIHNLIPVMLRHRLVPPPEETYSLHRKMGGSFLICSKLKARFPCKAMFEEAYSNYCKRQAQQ

[5] = target: RAC-gamma serine/threonine-protein kinase (Homo sapiens) (UniProt Q9Y243); details: Compound concentration 1000.0 nM
[6] = target: Casein kinase I isoform gamma-3 (Homo sapiens) (UniProt Q9Y6M4); details: Compound concentration 1000.0 nM
[7] = tested on: Epidermal growth factor receptor (Homo sapiens), P00533 [UNDEFINED MUTATION]; details: Compound concentration 1000.0 nM
[8] = target: Mitogen-activated protein kinase 4 (Homo sapiens) (UniProt P31152); details: Compound concentration 1000.0 nM
[9] = target: Fibroblast growth factor receptor 1 (Homo sapiens) (UniProt P11362); details: Compound concentration 1000.0 nM
[10] = target: Fibroblast growth factor receptor 2 (Homo sapiens) (UniProt P21802); details: Compound concentration 1000.0 nM
Fibroblast growth factor receptor 2 (Homo sapiens), sequence (P21802 22-821 limits assumed): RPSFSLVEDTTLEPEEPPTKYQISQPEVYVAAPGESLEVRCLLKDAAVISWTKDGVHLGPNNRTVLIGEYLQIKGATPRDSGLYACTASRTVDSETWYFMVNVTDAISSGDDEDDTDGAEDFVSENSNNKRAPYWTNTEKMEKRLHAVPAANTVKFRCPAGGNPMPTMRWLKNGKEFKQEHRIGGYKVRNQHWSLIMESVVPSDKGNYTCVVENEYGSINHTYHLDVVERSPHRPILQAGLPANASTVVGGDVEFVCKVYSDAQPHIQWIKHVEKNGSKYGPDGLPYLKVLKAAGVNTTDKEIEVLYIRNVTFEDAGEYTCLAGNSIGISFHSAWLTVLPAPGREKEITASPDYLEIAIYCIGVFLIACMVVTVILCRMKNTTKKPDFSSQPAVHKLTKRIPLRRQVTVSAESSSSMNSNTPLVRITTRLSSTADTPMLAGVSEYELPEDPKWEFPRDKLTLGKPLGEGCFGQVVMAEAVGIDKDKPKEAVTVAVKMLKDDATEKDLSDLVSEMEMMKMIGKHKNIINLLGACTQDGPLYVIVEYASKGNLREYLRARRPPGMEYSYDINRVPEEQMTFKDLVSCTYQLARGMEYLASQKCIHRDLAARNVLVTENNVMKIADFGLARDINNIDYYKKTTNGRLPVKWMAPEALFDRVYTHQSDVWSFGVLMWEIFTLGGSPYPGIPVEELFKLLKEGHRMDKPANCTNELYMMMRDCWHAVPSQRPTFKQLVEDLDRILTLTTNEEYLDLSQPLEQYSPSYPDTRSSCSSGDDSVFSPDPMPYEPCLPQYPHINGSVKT

[11] = target: Tyrosine-protein kinase FRK (Homo sapiens) (UniProt P42685); details: Compound concentration 1000.0 nM
[12] = target: Homeodomain-interacting protein kinase 4 (Homo sapiens) (UniProt Q8NE63); details: Compound concentration 1000.0 nM
Homeodomain-interacting protein kinase 4 (Homo sapiens), sequence (Q8NE63 whole entry): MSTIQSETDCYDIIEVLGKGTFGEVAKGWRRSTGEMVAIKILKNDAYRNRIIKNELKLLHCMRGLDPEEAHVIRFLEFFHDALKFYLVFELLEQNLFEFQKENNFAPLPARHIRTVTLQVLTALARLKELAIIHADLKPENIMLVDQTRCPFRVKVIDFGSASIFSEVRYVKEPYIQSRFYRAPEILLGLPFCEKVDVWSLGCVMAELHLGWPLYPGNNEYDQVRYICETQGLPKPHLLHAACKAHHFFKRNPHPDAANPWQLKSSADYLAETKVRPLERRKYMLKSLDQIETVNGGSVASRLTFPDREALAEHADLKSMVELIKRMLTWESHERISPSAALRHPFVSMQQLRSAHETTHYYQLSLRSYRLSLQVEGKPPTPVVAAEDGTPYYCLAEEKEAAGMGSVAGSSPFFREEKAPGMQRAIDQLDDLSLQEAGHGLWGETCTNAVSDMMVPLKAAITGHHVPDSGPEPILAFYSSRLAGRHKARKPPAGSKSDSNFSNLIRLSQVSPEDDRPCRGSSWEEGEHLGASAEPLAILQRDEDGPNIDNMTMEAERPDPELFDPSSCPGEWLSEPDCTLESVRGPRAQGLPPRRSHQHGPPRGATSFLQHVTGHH

[13] = target: Tyrosine-protein kinase JAK1 (Homo sapiens) (UniProt P23458); details: Compound concentration 1000.0 nM
[14] = target: Mitogen-activated protein kinase kinase kinase 2 (Homo sapiens) (UniProt Q9Y2U5); details: Compound concentration 1000.0 nM
[15] = target: Serine/threonine-protein kinase MRCK alpha (Homo sapiens) (UniProt Q5VT25); details: Compound concentration 1000.0 nM
[16] = target: Serine/threonine-protein kinase 3 (Homo sapiens) (UniProt Q13188); details: Compound concentration 1000.0 nM
Serine/threonine-protein kinase 3 (Homo sapiens), sequence (Q13188 whole entry): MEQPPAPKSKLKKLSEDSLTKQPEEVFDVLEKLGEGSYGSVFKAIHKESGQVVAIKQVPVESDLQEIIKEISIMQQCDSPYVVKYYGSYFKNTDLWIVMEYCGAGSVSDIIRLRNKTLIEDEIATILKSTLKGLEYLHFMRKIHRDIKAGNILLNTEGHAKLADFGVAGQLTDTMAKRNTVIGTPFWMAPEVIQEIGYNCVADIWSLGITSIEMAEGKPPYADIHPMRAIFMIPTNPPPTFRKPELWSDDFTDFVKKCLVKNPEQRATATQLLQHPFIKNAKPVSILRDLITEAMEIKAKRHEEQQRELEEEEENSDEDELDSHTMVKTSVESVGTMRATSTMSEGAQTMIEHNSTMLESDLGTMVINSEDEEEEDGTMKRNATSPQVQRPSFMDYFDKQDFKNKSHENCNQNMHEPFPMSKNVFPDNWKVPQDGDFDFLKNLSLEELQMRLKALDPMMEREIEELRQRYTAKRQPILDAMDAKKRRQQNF

[17] = target: Myosin light chain kinase, smooth muscle (Homo sapiens) (UniProt Q15746); details: Compound concentration 1000.0 nM
[18] = target: Serine/threonine-protein kinase PAK 3 (Homo sapiens) (UniProt O75914); details: Compound concentration 1000.0 nM
[19] = target: Phosphatidylinositol 5-phosphate 4-kinase type-2 gamma (Homo sapiens) (UniProt Q8TBX8); details: Compound concentration 1000.0 nM
[20] = target: Serine/threonine-protein kinase PLK1 (Homo sapiens) (UniProt P53350); details: Compound concentration 1000.0 nM
[21] = target: Protein kinase C delta type (Homo sapiens) (UniProt Q05655); details: Compound concentration 1000.0 nM
[22] = target: Protein-tyrosine kinase 2-beta (Homo sapiens) (UniProt Q14289); details: Compound concentration 1000.0 nM
[23] = target: Serine/threonine-protein kinase WNK3 (Homo sapiens) (UniProt Q9BYP7); details: Compound concentration 1000.0 nM
Serine/threonine-protein kinase WNK3 (Homo sapiens), sequence (Q9BYP7 whole entry): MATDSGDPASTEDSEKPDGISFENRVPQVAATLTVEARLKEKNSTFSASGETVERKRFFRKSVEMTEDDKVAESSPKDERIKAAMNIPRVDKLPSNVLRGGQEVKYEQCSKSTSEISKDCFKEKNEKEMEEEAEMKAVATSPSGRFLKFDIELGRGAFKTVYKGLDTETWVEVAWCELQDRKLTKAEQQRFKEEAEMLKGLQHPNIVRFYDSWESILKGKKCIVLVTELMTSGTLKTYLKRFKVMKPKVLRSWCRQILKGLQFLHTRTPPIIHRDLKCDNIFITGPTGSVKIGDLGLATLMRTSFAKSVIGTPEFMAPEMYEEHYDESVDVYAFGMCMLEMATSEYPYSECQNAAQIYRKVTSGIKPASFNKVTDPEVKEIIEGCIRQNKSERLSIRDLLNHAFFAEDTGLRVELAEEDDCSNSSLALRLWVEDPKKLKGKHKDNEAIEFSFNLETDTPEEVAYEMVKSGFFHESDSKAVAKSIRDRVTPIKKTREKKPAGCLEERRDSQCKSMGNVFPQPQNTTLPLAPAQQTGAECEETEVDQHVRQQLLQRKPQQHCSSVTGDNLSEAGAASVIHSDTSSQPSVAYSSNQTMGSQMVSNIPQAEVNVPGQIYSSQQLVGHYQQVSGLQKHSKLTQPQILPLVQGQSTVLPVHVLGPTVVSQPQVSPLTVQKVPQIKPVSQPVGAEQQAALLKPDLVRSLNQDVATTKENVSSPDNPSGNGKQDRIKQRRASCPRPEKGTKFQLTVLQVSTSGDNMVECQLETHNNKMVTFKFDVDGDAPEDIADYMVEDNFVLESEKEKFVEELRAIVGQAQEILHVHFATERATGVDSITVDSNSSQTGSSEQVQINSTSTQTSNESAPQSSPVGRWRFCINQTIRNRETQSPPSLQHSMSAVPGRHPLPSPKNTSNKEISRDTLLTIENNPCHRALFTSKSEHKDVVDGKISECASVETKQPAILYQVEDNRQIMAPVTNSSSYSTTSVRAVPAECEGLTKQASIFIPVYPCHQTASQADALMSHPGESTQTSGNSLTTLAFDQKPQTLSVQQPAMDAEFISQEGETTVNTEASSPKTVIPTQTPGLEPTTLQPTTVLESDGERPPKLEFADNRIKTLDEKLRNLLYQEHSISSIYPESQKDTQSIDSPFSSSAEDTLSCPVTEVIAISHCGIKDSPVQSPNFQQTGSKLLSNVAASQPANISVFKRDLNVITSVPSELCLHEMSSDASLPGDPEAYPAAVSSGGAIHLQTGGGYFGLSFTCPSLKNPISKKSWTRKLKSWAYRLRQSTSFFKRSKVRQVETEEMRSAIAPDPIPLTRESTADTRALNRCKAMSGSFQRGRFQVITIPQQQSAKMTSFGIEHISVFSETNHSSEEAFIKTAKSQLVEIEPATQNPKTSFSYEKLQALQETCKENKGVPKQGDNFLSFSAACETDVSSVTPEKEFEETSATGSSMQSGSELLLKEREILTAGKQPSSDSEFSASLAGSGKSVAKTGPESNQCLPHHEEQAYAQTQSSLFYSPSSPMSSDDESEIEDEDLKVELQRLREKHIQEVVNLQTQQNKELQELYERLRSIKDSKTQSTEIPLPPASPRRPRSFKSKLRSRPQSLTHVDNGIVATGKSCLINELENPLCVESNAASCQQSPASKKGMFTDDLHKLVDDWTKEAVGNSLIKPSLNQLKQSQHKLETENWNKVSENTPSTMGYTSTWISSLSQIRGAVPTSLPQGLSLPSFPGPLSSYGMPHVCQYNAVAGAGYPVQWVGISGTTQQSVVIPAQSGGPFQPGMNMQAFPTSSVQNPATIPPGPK

[24] = target: Tyrosine-protein kinase ZAP-70 (Homo sapiens) (UniProt P43403); details: Compound concentration 1000.0 nM
Tyrosine-protein kinase ZAP-70 (Homo sapiens), sequence (P43403 whole entry): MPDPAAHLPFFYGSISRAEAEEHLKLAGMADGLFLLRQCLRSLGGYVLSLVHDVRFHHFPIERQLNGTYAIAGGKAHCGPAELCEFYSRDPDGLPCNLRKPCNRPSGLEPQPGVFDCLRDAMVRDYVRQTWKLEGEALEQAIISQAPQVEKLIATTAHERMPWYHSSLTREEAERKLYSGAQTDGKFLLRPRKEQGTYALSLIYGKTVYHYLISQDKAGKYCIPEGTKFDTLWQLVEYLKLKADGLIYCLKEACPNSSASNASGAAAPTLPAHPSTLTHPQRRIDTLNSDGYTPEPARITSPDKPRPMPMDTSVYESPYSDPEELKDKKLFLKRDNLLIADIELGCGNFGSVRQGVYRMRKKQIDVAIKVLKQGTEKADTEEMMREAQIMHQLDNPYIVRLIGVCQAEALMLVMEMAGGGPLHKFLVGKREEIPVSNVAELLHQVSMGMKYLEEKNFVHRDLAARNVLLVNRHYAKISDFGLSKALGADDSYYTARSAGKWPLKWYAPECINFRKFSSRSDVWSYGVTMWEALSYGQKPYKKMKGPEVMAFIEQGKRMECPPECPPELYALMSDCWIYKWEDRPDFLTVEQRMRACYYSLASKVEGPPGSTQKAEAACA

[25] = target: 5-hydroxytryptamine receptor 5A (Homo sapiens) (UniProt P47898); details: Compound concentration 10.0 uM
[26] = target: D(2) dopamine receptor (Homo sapiens) (UniProt P14416); details: Compound concentration 10.0 uM
[27] = target: Mu-type opioid receptor (Homo sapiens) (UniProt P35372); details: Compound concentration 10.0 uM
[28] = target: Muscarinic acetylcholine receptor M5 (Homo sapiens) (UniProt P08912); details: Compound concentration 10.0 uM
[29] = target: Alpha-1D adrenergic receptor (Homo sapiens, UniProt P25100); assay: GPCRScan assay: inhibition of Alpha1D; design: radioligand conc. used [nm] 0.3 – 1.0, parental cells stable
[30] = target: Alpha-1B adrenergic receptor (Homo sapiens, UniProt P35368); assay: Binding assay (ADRA1B)
[31] = target: Alpha-1A adrenergic receptor (Homo sapiens) (UniProt P35348); details: Compound concentration 10.0 uM
[32] = target: Alpha-2B adrenergic receptor (Homo sapiens) (UniProt P18089); details: Compound concentration 10.0 uM
[33] = target: Beta-3 adrenergic receptor (Homo sapiens) (UniProt P13945); details: Compound concentration 10.0 uM

With `C[C@H](c1cccc(C#N)c1)n1cc(Cl)cc(C(N)=O)c1=N` [(R)-9s] the inhibition [1] was 5%, the inhibition [2] was 10% and the inhibition [3] was -6%. It also gave a residual activity [4] of 88%, a residual activity [5] of 100% and a residual activity [6] of 100%. It also gave a residual activity [7] of 99%, a residual activity [8] of 82% and a residual activity [9] of 95%. The residual activity [10] was 43%, the residual activity [11] was 98% and the residual activity [12] was 100%. The residual activity [13] was 92%, the residual activity [14] was 100% and the residual activity [15] was 100%. The residual activity [16] was 84%, the residual activity [17] was 100% and the residual activity [18] was 88%. The residual activity [19] was 100%, the residual activity [20] was 89% and the residual activity [21] was 91%. For the same molecule, the residual activity [22] was 100%, the residual activity [23] was 80% and the residual activity [24] was 92%. For the same molecule, the inhibition [25] was 0.88%, the inhibition [26] was 1.55% and the inhibition [27] was -5.45%. For the same molecule, the inhibition [28] was 3.44%.
For `C[C@@H](c1cccc(C#N)c1)n1cc(Cl)cc(C(N)=O)c1=N` [(S)-9s], the Ki [29] was 1480 nM, the Ki [30] was > 1200 nM (not active) and the residual activity [4] was 89%. The residual activity [5] was 100%, the residual activity [6] was 100% and the residual activity [7] was 100%. For the same molecule, the residual activity [8] was 90%, the residual activity [9] was 91% and the residual activity [10] was 67%. For the same molecule, the residual activity [11] was 100%, the residual activity [12] was 100% and the residual activity [13] was 93%. It also gave a residual activity [14] of 100%, a residual activity [15] of 100% and a residual activity [16] of 96%. For the same molecule, the residual activity [17] was 88%, the residual activity [18] was 94% and the residual activity [19] was 85%. For the same molecule, the residual activity [20] was 98%, the residual activity [21] was 77% and the residual activity [22] was 87%. For the same molecule, the residual activity [23] was 82%, the residual activity [24] was 84% and the inhibition [26] was -3.06%. It also gave an inhibition [27] of -6.83%, an inhibition [31] of 54.8% and an inhibition [32] of 0.7%. For the same molecule, the inhibition [28] was -1.05% and the inhibition [33] was -4.49%.
